Patent publication US20250041294A1, “Synergistic compositions for use in the treatment of cancer” (Sartar Therapeutics Oy, priority 2021, published 2025)
Where two headings read alike, the source gives them in different places.

Columns and labels:
Type in all cases: cell-based
GOT3 and SA4 cell lines = experiment: High throughput drug sensitivity and resistance test, average over cell lines (anagrelide combination)
Procedure: (§1) Cell lines. PDE3A-positive (GIST882, SA4, and GOT3) and PDE3A-negative cell lines (93TT449, 94T778, LPS141, MLS17656-92, MLS402-91, and SW872) were cultured in RPMI Medium 1640 (Gibco) with 5-, 10- or 20% fetal bovine serum (FBS, gibco), 100 U/mL of penicillin, 100 […] and 0.03 mg/mL of L-glutamine (Pen Strep Glut, Gibco, 10378-016) in a humidified, 5% CO2 atmosphere at 37° C.
(§2) High throughput drug sensitivity and resistance test. A sensitivity and resistance of cancer cell lines to 528 compounds were investigated in 9 cell lines (GIST882, SA4, GOT3, 93TT449, 94T778, LPS141, MLS17656-92, MLS402-91, and SW872). In addition, same compounds were investigated together with anagrelide hydrochloride (100 nM) treatment in the PDE3A low expressing cell lines SA4 and GOT3, and with BAY2666605 (40 nM) in all PDE3A-positive cell lines GIST882, SA4 and GOT3. The compounds were dissolved in 100% dimethyl sulfoxide or water and plated in 10-fold dilutions covering a 10,000-fold concentration range on flat clear bottom 384-well microplates as described in detail earlier (Pulkka O P, et al 2019). A cell viability was measured after 72 hours using CellTiter-Glo Cell Viability assay (Promega Inc.) and PHERAstar FS plate reader (BMG Labtech). The data were normalized to negative (0.01% dimethyl sulfoxide only) and positive (100 μmol/L benzethonium chloride) controls.
(§3) A four-parameter logistic dose-response curves were estimated by using the Marquardt-Levenberg algorithm and Breeze analysis platform. Drug responses to the test compounds were measured using the drug sensitivity score (DSS). Drug synergy partners, which were common in investigated cell lines were identified as following: DSS value of a single agent was subtracted from the DSS value of anagrelide-drug combination in single cell lines. […] The analysis was repeated by using BAY2666605 as a PDE3A modulator.

[1] = system: GIST882, GOT3 and SA4 cell lines; experiment: High throughput drug sensitivity and resistance test, average over cell lines (BAY2666605 combination)
Procedure: as §1, §2, §3

SA4 cell line = experiment: High throughput drug sensitivity and resistance test (CellTiter-Glo, 72 hours)
Procedure: as §1, §2, §3

GOT3 cell line = experiment: as above
Procedure: as §1, §2, §3

[2] = anagrelide combination, average of SA4 and GOT3, aDSS higher than 3.0 = synergy
[3] = with anagrelide (GOT3, SA4) or BAY2666605 (GIST882, GOT3, SA4)
[4] = drug combined with anagrelide hydrochloride (100 nM) minus drug alone, SA4
[5] = drug combined with anagrelide hydrochloride (100 nM) minus drug alone, GOT3

SMILES | Average DSS (aDSS) (GOT3 and SA4 cell lines; [2]) | synergy in high-throughput screening (in words) [1, 3] | SA4 cell line: DSS(combo (anagrelide))-DSS(drug) (SA4 cell line; [4]) | GOT3 cell line: DSS(combo (anagrelide))-DSS(drug) (GOT3 cell line; [5]) | further results
CC(C)(C)C[C@@H]1N[C@@H](C(=O)N[C@H]2CC[C@H](O)CC2)[C@H](c2cccc(Cl)c2F)[C@]12C(=O)Nc1cc(Cl)ccc12 [SAR405838] | 3.95 | synergistic | 7.8 | 0.1 | 
CC(C)Oc1ccc(C(=O)N[C@H](CNC(=O)CN(C)C)Cc2ccc(-c3cn4cccc([C@H](C)O)c4n3)cc2)cc1Cl [GSK923295] | 3.35 | synergistic | 3.9 | 2.8 | 
COc1ccc(-c2ccc3c(N4CCOC[C@@H]4C)nc(N4CCOC[C@@H]4C)nc3n2)cc1CO [AZD8055] | 3.7 | synergistic | 5.9 | 1.5 | 
C/C=C1\NC(=O)[C@H]2CSSCC/C=C/[C@H](CC(=O)N[C@H](C(C)C)C(=O)N2)OC(=O)[C@H](C(C)C)NC1=O [Romidepsin, romidepsin] |  |  | 6.3 | 1.4 | 
CO[C@H]1CC[C@H](N2C(=O)CNc3ncc(-c4ccc(C(C)(C)O)nc4)nc32)CC1 [CC-223] | 3.2 | synergistic | 5.6 | 0.8 | 
N[C@@H]1CCCN(c2c(/C=C3\SC(=O)NC3=O)cccc2-c2ccccc2)C1 [AZD1208] | 3.7 | synergistic | 7.1 | 0.3 | 
O=C1CN2Cc3c(ccc(Cl)c3Cl)N=C2N1 [Anagrelide, anagrelide] |  |  |  |  | DSS (drug sensitivity score) (SA4 cell line; Anagrelide alone, SA4): 15.4; IC50 (SA4 cell line; Anagrelide alone, SA4, cell viability 72 hours): 0.0735 µM; DSS (drug sensitivity score) (GOT3 cell line; Anagrelide alone, GOT3): 9.2; IC50 (GOT3 cell line; Anagrelide alone, GOT3, cell viability 72 hours): 0.0843 µM
Cn1cc(-c2cnn3c(N)c(Br)c([C@@H]4CCCNC4)nc23)cn1 [MK-8776] |  |  |  |  | Average DSS (aDSS) (GOT3 and SA4 cell lines): 3.2; synergy in high-throughput screening (in words) [1]: synergistic; SA4 cell line: DSS(combo (anagrelide))-DSS(drug) (SA4 cell line): 4.8; GOT3 cell line: DSS(combo (anagrelide))-DSS(drug) (GOT3 cell line): 1.6
CC(C)[C@H](C(=O)Nc1ccc(C(=O)NO)cc1)c1ccccc1 [AR-42] | 6.05 | synergistic | 12.9 | −0.8 | 
Cn1ncc(Cl)c1-c1cc(C(=O)N[C@H](CN)Cc2ccc(F)c(F)c2)oc1Cl [Uprosertib, uprosertib] | 3.6 | synergistic | 5.4 | 1.8 | 
COc1ccc(-c2nc(N3CCOCC3)c3sc(CN(C)c4ncc(C(=O)NO)cn4)cc3n2)cn1 [CUDC-907] | 5.4 | synergistic | 10.8 | 0 | 
CNC(=O)c1ccccc1Nc1cc(Nc2ccc(N3CCOCC3)cc2OC)ncc1C(F)(F)F [VS-4718] | 4.55 | synergistic | 5.3 | 3.8 | 
CC(C)[C@@H](CS(=O)(=O)C(C)C)N1C(=O)[C@@](C)(CC(=O)O)C[C@H](c2cccc(Cl)c2)[C@H]1c1ccc(Cl)cc1 [AMG-232] | 3.1 | synergistic | 6.2 | 0 | 
CN(C)C[C@@H]1CCn2cc(c3ccccc32)C2=C(C(=O)NC2=O)c2cn(c3ccccc23)CCO1 [Ruboxistaurin] | 3.3 | synergistic | 4.8 | 1.8 | 
CC1(C)OCCn2c1nc1c(N3CCOCC3)nc(-c3cnc(N)nc3)nc12 [GDC-0084] | 3.1 | synergistic | 3.9 | 2.3 | 
CO[C@@H]1[C@H](N(C)C(=O)c2ccccc2)C[C@H]2O[C@]1(C)n1c3ccccc3c3c4c(c5c6ccccc6n2c5c31)C(=O)NC4 [Midostaurin, midostaurin] | 3.7 |  | 5.1 | 2.3 | 
Nc1nccc(-c2c(-c3ccc(F)cc3)ncn2C2CCCCC2)n1 [PF-670462] | 3.65 | synergistic | 7.1 | 0.2 | 
Nc1nc2cc(-c3ccc4ncc(C(=O)N5CCOCC5)n4c3)ccc2o1 [Serabelisib, serabelisib] | 3.85 | synergistic | 5.8 | 1.9 | 
CCN(CCO)CCCOc1ccc2c(Nc3cc(CC(=O)Nc4cccc(F)c4)[nH]n3)ncnc2c1 [AZD1152-HQPA] | 4.65 | synergistic | 5.9 | 3.4 | 
CNC(=O)c1nn(C)c2c1C(C)(C)Cc1cnc(Nc3ccc(N4CCN(C)CC4)cc3)nc1-2 [Milciclib, milciclib] | 3.75 | synergistic | 3.9 | 3.6 | 
